Assay [1] has as its target human activated kallikrein enzyme (Homo sapiens, UniProt P03952). Description: Plasma kallikrein inhibition, fluorogenic PFR-AMC substrate, 500 pM activated kallikrein format. Particulars: 300 uM PFR-AMC, 30 min preincubation, 10 min reaction. The assay is classed as biochemical. The method, boiled down: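 High-enzyme format of the fluorogenic peptide assay, with EC50 taken from AMC signal: 500 pM activated kallikrein, 300 uM Pro-Phe-Arg-AMC, 30 min compound preincubation and 10 min reaction, all at room temperature, pH 7.5.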

The target of assay [2] is T1, plasma kallikrein (Homo sapiens, UniProt P03952).
T1 construct: from tissue
Description: Neat human plasma assay, FXIIa contact pathway-activated, PFR-AMC substrate. The assay is classed as biochemical. To be noted: read-out: Human Plasma Assay: IC90. The method, boiled down: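 Compound inhibition of plasma kallikrein measured as PFR-AMC (100 μM) cleavage rate over 5 min at room temperature in 78% citrated human plasma activated with 10 nM FXIIa (Tris pH 7.5 buffer). IC50/IC90 from 4-parameter fit of rate versus inhibitor concentration.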

Where [3] appears, read: 500 pM activated kallikrein, read-out: Primary Dose Response Assay: Average EC50.
Setting [4] is: citrated human plasma 78% final, 10 nM human FXIIa, 100 μM PFR-AMC.

This is an account of results in patent US20240228488A1 (TAKEDA PHARMACEUTICAL COMPANY LIMITED, priority 2021, published 2024).

Like-named read-outs stand apart in the source and are kept apart here. A value given as a limit tells only on which side of the number the result lay.

T1 sequence (P03952 391-638 limits assumed): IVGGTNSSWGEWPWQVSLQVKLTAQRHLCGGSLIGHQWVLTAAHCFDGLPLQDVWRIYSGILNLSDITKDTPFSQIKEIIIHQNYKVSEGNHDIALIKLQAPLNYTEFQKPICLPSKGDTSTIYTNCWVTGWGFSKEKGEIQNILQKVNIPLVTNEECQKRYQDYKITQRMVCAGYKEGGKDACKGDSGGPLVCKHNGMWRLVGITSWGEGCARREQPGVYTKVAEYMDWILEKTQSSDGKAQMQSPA
T1 sequence (P03952 20-390 partner limits assumed): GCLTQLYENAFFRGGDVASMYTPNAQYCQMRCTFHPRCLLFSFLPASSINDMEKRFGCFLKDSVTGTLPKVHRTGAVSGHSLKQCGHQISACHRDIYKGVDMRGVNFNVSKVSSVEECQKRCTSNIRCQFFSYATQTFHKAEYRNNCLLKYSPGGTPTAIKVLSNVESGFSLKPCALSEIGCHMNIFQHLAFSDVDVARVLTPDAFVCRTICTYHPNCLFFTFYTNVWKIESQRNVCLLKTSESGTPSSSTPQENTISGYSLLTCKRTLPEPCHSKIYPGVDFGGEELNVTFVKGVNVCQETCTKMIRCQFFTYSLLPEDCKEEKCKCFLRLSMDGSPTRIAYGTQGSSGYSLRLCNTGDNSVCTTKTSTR
Chain of human activated kallikrein enzyme (P03952 391-638 limits assumed): as the sequence (P03952 391-638 limits assumed) above
Chain of human activated kallikrein enzyme (P03952 20-390 partner limits assumed): as the sequence (P03952 20-390 partner limits assumed) above

By EC50 is commonly meant the concentration at which the effect is half-maximal. By IC90 is commonly meant the concentration at which the effect reaches the 90% level. As for `CN1CCN(c2cc(C3CC3)cn3cc(CNc4cnnc(NC(=O)[C@H]5C[C@@H]5c5cccc(Cl)c5)c4)nc23)CC1` [Example 612, (1S,2S)-2-(3-chlorophenyl)-N-(5-(((6-cyclopropyl-8-(4-methylpiperazin-1-yl)imidazo[1,2-a]pyridin-2-yl)methyl)amino)pyridazin-3-yl)cyclopropane-1-carboxamide], the concentration giving a half-maximal response (EC50) in assay [1] (setting [3]) is < 1 nM. The IC90 in assay [2] (setting [4]) lay within 1500 to 10000 nM.
Taken in the same sequence, the figures for `CN1CCN(c2cc(C3CC3)cn3cc(CNc4nccc(NC(=O)[C@H]5C[C@@H]5c5cccc(Cl)c5)n4)nc23)CC1` [Example 613, (1S,2S)-2-(3-chlorophenyl)-N-(2-(((6-cyclopropyl-8-(4-methylpiperazin-1-yl)imidazo[1,2-a]pyridin-2-yl)methyl)amino)pyrimidin-4-yl)cyclopropane-1-carboxamide] were 1 to 10 nM and 400 to 1500 nM.
Turning to `Cc1ccnc([C@H]2C[C@@H]2C(=O)Nc2cc(N[C@H](C)c3cn4cc(CF)cc(N5CC(=O)N(C)C5=O)c4n3)ncn2)n1` [Example 678, (1S,2S)—N-(6-(((R)-1-(6-(fluoromethyl)-8-(3-methyl-2,4-dioxoimidazolidin-1-yl)imidazo[1,2-a]pyridin-2-yl)ethyl)amino)pyrimidin-4-yl)-2-(4-methylpyrimidin-2-yl)cyclopropane-1-carboxamide], in assay [1] (Primary Dose Response Assay: Average EC50, 500 pM activated kallikrein), the EC50 is < 1 nM. Further, the IC90 in assay [2] was < 400 nM.
Turning to `CN1CCN(c2cc(C3CC3)cn3cc(CNc4cc(NC(=O)[C@H]5C[C@@H]5c5cccc(Cl)c5)ncn4)nc23)CC1` [Example I-2, (1S,2S)-2-(3-chlorophenyl)-N-(6-(((6-cyclopropyl-8-(4-methylpiperazin-1-yl)imidazo[1,2-a]pyridin-2-yl)methyl)amino)pyrimidin-4-yl)cyclopropane-1-carboxamide], in assay [1] (setting [3]), the EC50 is < 1 nM. The IC90 in assay [2] (setting [4]) lay within 400 to 1500 nM.
The matching figures for `CN(C)C1CN(c2cc(C3CC3)cn3cc(CNc4ccnc(NC(=O)[C@H]5C[C@@H]5c5cccc(Cl)c5)c4)nc23)C1` [Example I-4, (1S,2S)-2-(3-chlorophenyl)-N-(4-(((6-cyclopropyl-8-(3-(dimethylamino)azetidin-1-yl)imidazo[1,2-a]pyridin-2-yl)methyl)amino)pyridin-2-yl)cyclopropane-1-carboxamide]: < 1 nM and 1500 to 10000 nM.
On to `CN1CCC(Nc2cc(C3CC3)cn3cc(CNc4cc(NC(=O)[C@H]5C[C@@H]5c5cccc(Cl)c5)ncn4)nc23)CC1` [Example I-5, (1S,2S)-2-(3-chlorophenyl)-N-(6-(((6-cyclopropyl-8-((1-methylpiperidin-4-yl)amino)imidazo[1,2-a]pyridin-2-yl)methyl)amino)pyrimidin-4-yl)cyclopropane-1-carboxamide], for which, in assay [1] (setting [3]), the EC50 is < 1 nM. Moreover, the IC90 in assay [2] (setting [4]) was in the range of 400 to 1500 nM.
The matching figures for `COCC1CN(c2cc(C3CC3)cn3cc(CNc4cc(NC(=O)[C@H]5C[C@@H]5c5cccc(Cl)c5)ncn4)nc23)CCN1C` (stereo partly drawn) [Example I-6, (1S,2S)-2-(3-chlorophenyl)-N-(6-(((6-cyclopropyl-8-(3-(methoxymethyl)-4-methylpiperazin-1-yl)imidazo[1,2-a]pyridin-2-yl)methyl)amino)pyrimidin-4-yl)cyclopropane-1-carboxamide]: 1 to 10 nM and 1500 to 10000 nM.
Taken in the same sequence, the figures for `CN1CCN(c2cc(C3CC3)cn3cc(CNc4cc(NC(=O)[C@H]5C[C@@H]5c5cccc(Cl)c5)ncn4)nc23)CC1CO` (stereo partly drawn) [Example I-7, (1S,2S)-2-(3-chlorophenyl)-N-(6-(((6-cyclopropyl-8-(3-(hydroxymethyl)-4-methylpiperazin-1-yl)imidazo[1,2-a]pyridin-2-yl)methyl)amino)pyrimidin-4-yl)cyclopropane-1-carboxamide] were 1 to 10 nM and 400 to 1500 nM.
Taken in the same sequence, the figures for `CN1CN(c2cc(C3CC3)cn3cc(CNc4cc(NC(=O)[C@H]5C[C@@H]5c5cccc(Cl)c5)ncn4)nc23)CC1=O` [Example I-9, (1S,2S)-2-(3-chlorophenyl)-N-(6-(((6-cyclopropyl-8-(3-methyl-4-oxoimidazolidin-1-yl)imidazo[1,2-a]pyridin-2-yl)methyl)amino)pyrimidin-4-yl)cyclopropane-1-carboxamide] were 1 to 10 nM and 1500 to 10000 nM.
Regarding `O=C(Nc1cc(NCc2cn3cc(C4CC4)cc(N4CCS(=O)(=O)CC4)c3n2)ncn1)[C@H]1C[C@@H]1c1cccc(Cl)c1` [Example I-10, (1S,2S)-2-(3-chlorophenyl)-N-(6-(((6-cyclopropyl-8-(1,1-dioxidothiomorpholino)imidazo[1,2-a]pyridin-2-yl)methyl)amino)pyrimidin-4-yl)cyclopropane-1-carboxamide], the EC50 in assay [1] (setting [3]) was 1 to 10 nM. Further, in assay [2] (setting [4]), the concentration for an effect of 90% (IC90) lay within 1500 to 10000 nM.
The matching figures for `O=C(Nc1cc(NCc2cn3cc(C4CC4)cc(N4CCN5CCC4C5)c3n2)ncn1)[C@H]1C[C@@H]1c1cccc(Cl)c1` (stereo partly drawn) [Example I-11, (1S,2S)-N-(6-(((8-(1,4-diazabicyclo[3.2.1]octan-4-yl)-6-cyclopropylimidazo[1,2-a]pyridin-2-yl)methyl)amino)pyrimidin-4-yl)-2-(3-chlorophenyl)cyclopropane-1-carboxamide]: 1 to 10 nM and 1500 to 10000 nM.
The matching figures for `CNC1CCN(c2cc(C3CC3)cn3cc(CNc4cc(NC(=O)[C@H]5C[C@@H]5c5cccc(Cl)c5)ncn4)nc23)C1` (stereo partly drawn) [Example I-16, (1S,2S)-2-(3-chlorophenyl)-N-(6-(((6-cyclopropyl-8-(3-(methylamino)pyrrolidin-1-yl)imidazo[1,2-a]pyridin-2-yl)methyl)amino)pyrimidin-4-yl)cyclopropane-1-carboxamide]: < 1 nM and 400 to 1500 nM.
The matching figures for `CN(C)C1CCN(c2cc(C3CC3)cn3cc(CNc4cc(NC(=O)[C@H]5C[C@@H]5c5cccc(Cl)c5)ncn4)nc23)C1=O` (stereo partly drawn) [Example I-17, (1S,2S)-2-(3-chlorophenyl)-N-(6-(((6-cyclopropyl-8-(3-(dimethylamino)-2-oxopyrrolidin-1-yl)imidazo[1,2-a]pyridin-2-yl)methyl)amino)pyrimidin-4-yl)cyclopropane-1-carboxamide]: < 1 nM and 400 to 1500 nM.
Turning to `CN(C)C1CC(=O)N(c2cc(C3CC3)cn3cc(CNc4cc(NC(=O)[C@H]5C[C@@H]5c5cccc(Cl)c5)ncn4)nc23)C1` (stereo partly drawn) [Example I-18, (1S,2S)-2-(3-chlorophenyl)-N-(6-(((6-cyclopropyl-8-(4-(dimethylamino)-2-oxopyrrolidin-1-yl)imidazo[1,2-a]pyridin-2-yl)methyl)amino)pyrimidin-4-yl)cyclopropane-1-carboxamide], in assay [1] (setting [3]), the EC50 is < 1 nM. The IC90 in assay [2] (setting [4]) is < 400 nM.
Taken in the same sequence, the figures for `O=C(Nc1cc(NCc2cn3cc(C4CC4)cc(N4CNCC4=O)c3n2)ncn1)[C@H]1C[C@@H]1c1cccc(Cl)c1` [Example I-19, (1S,2S)-2-(3-chlorophenyl)-N-(6-(((6-cyclopropyl-8-(5-oxoimidazolidin-1-yl)imidazo[1,2-a]pyridin-2-yl)methyl)amino)pyrimidin-4-yl)cyclopropane-1-carboxamide] were < 1 nM and < 400 nM.
Turning to `O=C(Nc1cc(NCc2cn3cc(C4CC4)cc(N4CCNC(C(F)(F)F)C4)c3n2)ccn1)[C@H]1C[C@@H]1c1cccc(Cl)c1` (stereo partly drawn) [Example I-21, (1S,2S)-2-(3-chlorophenyl)-N-(4-(((6-cyclopropyl-8-(3-(trifluoromethyl)piperazin-1-yl)imidazo[1,2-a]pyridin-2-yl)methyl)amino)pyridin-2-yl)cyclopropane-1-carboxamide], in assay [1] (setting [3]), the EC50 was 1 to 10 nM. In addition, in assay [2] (setting [4]), the IC90 lay within 1500 to 10000 nM.
Taken in the same sequence, the figures for `O=C(Nc1cc(NCc2cn3cc(C4CC4)cc(N4CCN5CCC4C5)c3n2)ccn1)[C@H]1C[C@@H]1c1cccc(Cl)c1` (stereo partly drawn) [Example I-23, (1S,2S)-N-(4-(((8-(1,4-diazabicyclo[3.2.1]octan-4-yl)-6-cyclopropylimidazo[1,2-a]pyridin-2-yl)methyl)amino)pyridin-2-yl)-2-(3-chlorophenyl)cyclopropane-1-carboxamide] were < 1 nM and 400 to 1500 nM.
The matching figures for `O=C(Nc1cc(NCc2cn3cc(C4CC4)cc(N4CC5(C4)CN(C4CC4)C5)c3n2)ccn1)[C@H]1C[C@@H]1c1cccc(Cl)c1` [Example I-24, (1S,2S)-2-(3-chlorophenyl)-N-(4-(((6-cyclopropyl-8-(6-cyclopropyl-2,6-diazaspiro[3.3]heptan-2-yl)imidazo[1,2-a]pyridin-2-yl)methyl)amino)pyridin-2-yl)cyclopropane-1-carboxamide]: < 1 nM and 1500 to 10000 nM.
For `CN(C)C1CCN(c2cc(C3CC3)cn3cc(CNc4ccnc(NC(=O)[C@H]5C[C@@H]5c5cccc(Cl)c5)c4)nc23)C1` (stereo partly drawn) [Example I-25, (1S,2S)-2-(3-chlorophenyl)-N-(4-(((6-cyclopropyl-8-(3-(dimethylamino)pyrrolidin-1-yl)imidazo[1,2-a]pyridin-2-yl)methyl)amino)pyridin-2-yl)cyclopropane-1-carboxamide], the EC50 in assay [1] (setting [3]) was < 1 nM. In assay [2] (setting [4]), the IC90 is 400 to 1500 nM.
Taken in the same sequence, the figures for `O=C(Nc1cc(NCc2cn3cc(C4CC4)cc(NC4COC4)c3n2)ccn1)[C@H]1C[C@@H]1c1cccc(Cl)c1` [Example I-26, (1S,2S)-2-(3-chlorophenyl)-N-(4-(((6-cyclopropyl-8-(oxetan-3-ylamino)imidazo[1,2-a]pyridin-2-yl)methyl)amino)pyridin-2-yl)cyclopropane-1-carboxamide] were < 1 nM and 1500 to 10000 nM.
